This note sets out measurements from ChEMBL document CHEMBL3046206, “Synthesis of new 4-(2,5-dimethylpyrrol-1-yl)/4-pyrrol-1-yl benzoic acid hydrazide analogs and some derived oxadiazole, triazole and pyrrole ring systems: a novel class of potential antibacterial, antifungal and antitubercular agents” (Med Chem Res, 2013).

Values after ≈ are worked out from the molar mass of the structure shown. A value given as a limit tells only on which side of the number the result lay.

For one test, the system named is Escherichia coli. Description: Antibacterial activity against Escherichia coli after 18 hr by broth microdilution technique. It is filed as functional. Background: Dilution methods test growth across graded concentrations, often in twofold steps.
Another test has as its system Aspergillus niger. Put plainly: Antifungal activity against Aspergillus niger after 18 hr by broth microdilution technique. Format: functional.
Test [1] deals with Mycobacterium tuberculosis. Put plainly: Antimycobacterial activity against Mycobacterium tuberculosis H37Rv after 21 days by broth dilution method. Format: functional. The note with it: 504 h.
The next test relates to Staphylococcus aureus. Put plainly: Antibacterial activity against Staphylococcus aureus after 18 hr by broth microdilution technique. Format: functional.
Another test relates to Vero. Put plainly: Cytotoxicity against Chlorocebus aethiops (African green monkey) Vero cells after 72 hr by MTT assay. Format: cell-based. The note with it: Chlorocebus sabaeus.
For another test, the system named is Klebsiella pneumoniae. Description: Antibacterial activity against Klebsiella pneumoniae after 18 hr by broth microdilution technique. It is filed as functional.
The next test concerns Saccharomyces cerevisiae. Put plainly: Antifungal activity against Saccharomyces cerevisiae after 18 hr by broth microdilution technique. Format: functional.
For a further test, the system named is Pseudomonas aeruginosa. Description: Antibacterial activity against Pseudomonas aeruginosa after 18 hr by broth microdilution technique. It is filed as functional.
Another test relates to Candida tropicalis. Put plainly: Antifungal activity against Candida tropicalis after 18 hr by broth microdilution technique. It is filed as functional.
Another test deals with A549. Put plainly: Cytotoxicity against Homo sapiens (human) A549 cells after 72 hr by MTT assay. Format: cell-based. The settings on record: A549, 72 h. (Tetrazolium dyes change colour on reduction, which living cells bring about.)
A further test deals with Enterococcus faecalis. Description: Antibacterial activity against Enterococcus faecalis after 18 hr by broth microdilution technique. Format: functional.
Another test concerns Bacillus subtilis. Put plainly: Antibacterial activity against Bacillus subtilis after 18 hr by broth microdilution technique. It is filed as functional.

Regarding `CC(=O)N1N=C(c2ccc(-n3c(C)ccc3C)cc2)OC1c1ccc(N(C)C)cc1` (stereo not drawn), the minimum inhibitory concentration (MIC) – broadly, the least concentration at which growth counts as inhibited – against Escherichia coli was determined as 500 µg/mL (≈ 1240 µM); against Aspergillus niger, 31.2 µg/mL (≈ 77.6 µM); in test [1], 16 µg/mL (≈ 39.8 µM); against Staphylococcus aureus it was 31.2 µg/mL (≈ 77.6 µM); against Klebsiella pneumoniae, 31.2 µg/mL (≈ 77.6 µM); against Saccharomyces cerevisiae, 31.2 µg/mL (≈ 77.6 µM). The MIC in the test with Pseudomonas aeruginosa came to 500 µg/mL (≈ 1240 µM); in the test on Candida tropicalis, 31.2 µg/mL (≈ 77.6 µM); in the test on Enterococcus faecalis, 31.2 µg/mL (≈ 77.6 µM); against Bacillus subtilis it was 16 µg/mL (≈ 39.8 µM). In addition, the IC50 (commonly the point on the concentration scale where inhibition reaches its midpoint) in the test on Vero worked out at 175 µM; with A549 it was 186 µM.

Regarding `Cc1ccc(C)n1NC(=O)c1ccc(-n2c(C)ccc2C)cc1`, the MIC came to 500 µg/mL (≈ 1630 µM) against Escherichia coli; 16 µg/mL (≈ 52 µM) with Aspergillus niger; 2 µg/mL (≈ 6.51 µM) in [1]; 2 µg/mL (≈ 6.51 µM) in the test on Staphylococcus aureus; 62.5 µg/mL (≈ 203 µM) against Klebsiella pneumoniae; 16 µg/mL (≈ 52 µM) in the test on Saccharomyces cerevisiae. In addition, the minimum inhibitory concentration (MIC) in the test on Pseudomonas aeruginosa was determined as 500 µg/mL (≈ 1630 µM); with Candida tropicalis, 4 µg/mL (≈ 13 µM); against Enterococcus faecalis, 16 µg/mL (≈ 52 µM); with Bacillus subtilis it was 16 µg/mL (≈ 52 µM). Also, the concentration for half-maximal inhibition (IC50) in the test with Vero turned out to be 230 µM; with A549, 225 µM.

Consider `O=C(NNC(=O)c1ccc(-n2cccc2)cc1)c1ccccc1`, for which the MIC against Escherichia coli was 31.2 µg/mL (≈ 102 µM); with Aspergillus niger it was 31.2 µg/mL (≈ 102 µM); in test [1], 8 µg/mL (≈ 26.2 µM); against Staphylococcus aureus, 62.5 µg/mL (≈ 205 µM); against Klebsiella pneumoniae, above 500 µg/mL; in the test with Saccharomyces cerevisiae, 31.2 µg/mL (≈ 102 µM). Also, the MIC in the test on Pseudomonas aeruginosa came to 62.5 µg/mL (≈ 205 µM); in the test with Candida tropicalis, 31.2 µg/mL (≈ 102 µM); in the test with Enterococcus faecalis it was 62.5 µg/mL (≈ 205 µM); against Bacillus subtilis it was 16 µg/mL (≈ 52.4 µM). In addition, the IC50 in the test with Vero amounted to 200 µM; in the test with A549, 215 µM.

Turning to `O=C(NNC(=O)c1ccccc1Br)c1ccc(-n2cccc2)cc1`, the minimal inhibitory concentration (MIC) with Escherichia coli is 16 µg/mL (≈ 41.6 µM); against Aspergillus niger, 16 µg/mL (≈ 41.6 µM); in [1] it was 8 µg/mL (≈ 20.8 µM); against Staphylococcus aureus it was 62.5 µg/mL (≈ 163 µM); with Klebsiella pneumoniae, above 500 µg/mL; in the test on Saccharomyces cerevisiae, 31.2 µg/mL (≈ 81.3 µM). Besides, the MIC in the test on Pseudomonas aeruginosa was determined as 16 µg/mL (≈ 41.6 µM); in the test with Candida tropicalis, 8 µg/mL (≈ 20.8 µM); in the test on Enterococcus faecalis, 62.5 µg/mL (≈ 163 µM); in the test on Bacillus subtilis it was 16 µg/mL (≈ 41.6 µM). Besides, the figures for the IC50 with Vero and with A549 were 198 µM and 201 µM, respectively.

In the case of `O=C(NNC(=O)c1ccc(-n2cccc2)cc1)c1ccc(Br)cc1`, the minimum inhibitory concentration (MIC) against Escherichia coli was 16 µg/mL (≈ 41.6 µM); against Aspergillus niger, 16 µg/mL (≈ 41.6 µM); in test [1], 8 µg/mL (≈ 20.8 µM); with Staphylococcus aureus it was 62.5 µg/mL (≈ 163 µM); against Klebsiella pneumoniae, above 500 µg/mL; with Saccharomyces cerevisiae it was 31.2 µg/mL (≈ 81.3 µM). Besides, the minimal inhibitory concentration (MIC) against Pseudomonas aeruginosa came out at 16 µg/mL (≈ 41.6 µM); against Candida tropicalis, 8 µg/mL (≈ 20.8 µM); against Enterococcus faecalis, 31.2 µg/mL (≈ 81.3 µM); in the test on Bacillus subtilis, 16 µg/mL (≈ 41.6 µM). Further, the half-inhibitory concentration (IC50) in the test with Vero came to 186 µM; in the test with A549 it was 201 µM.

For the molecule `O=C(NNC(=O)c1ccccc1[N+](=O)[O-])c1ccc(-n2cccc2)cc1`, the MIC was 31.2 µg/mL (≈ 89.2 µM) against Escherichia coli; 31.2 µg/mL (≈ 89.2 µM) in the test with Aspergillus niger; 8 µg/mL (≈ 22.8 µM) in [1]; 62.5 µg/mL (≈ 178 µM) against Staphylococcus aureus; above 500 µg/mL with Klebsiella pneumoniae; 31.2 µg/mL (≈ 89.2 µM) against Saccharomyces cerevisiae. The minimal inhibitory concentration (MIC) came out at 16 µg/mL (≈ 45.7 µM) against Pseudomonas aeruginosa, 31.2 µg/mL (≈ 89.2 µM) in the test with Candida tropicalis, 31.2 µg/mL (≈ 89.2 µM) against Enterococcus faecalis and 16 µg/mL (≈ 45.7 µM) in the test with Bacillus subtilis. Moreover, the IC50 in the test with Vero is 182 µM; in the test with A549 it was 205 µM.

For the molecule `O=C(NNC(=O)c1cccc([N+](=O)[O-])c1)c1ccc(-n2cccc2)cc1`, the MIC with Escherichia coli is 16 µg/mL (≈ 45.7 µM); against Aspergillus niger, 31.2 µg/mL (≈ 89.2 µM); in [1] it was 8 µg/mL (≈ 22.8 µM); against Staphylococcus aureus it was 62.5 µg/mL (≈ 178 µM); with Klebsiella pneumoniae, above 500 µg/mL; against Saccharomyces cerevisiae it was 31.2 µg/mL (≈ 89.2 µM). Also, the MIC in the test on Pseudomonas aeruginosa worked out at 16 µg/mL (≈ 45.7 µM); against Candida tropicalis, 31.2 µg/mL (≈ 89.2 µM); in the test with Enterococcus faecalis, 62.5 µg/mL (≈ 178 µM); in the test with Bacillus subtilis, 16 µg/mL (≈ 45.7 µM). Also, the half-maximal inhibitory concentration (IC50) came to 195 µM in the test on Vero and 203 µM in the test on A549.

With `O=C(NNC(=O)c1ccc([N+](=O)[O-])cc1)c1ccc(-n2cccc2)cc1`, the minimal inhibitory concentration (MIC) is 16 µg/mL (≈ 45.7 µM) in the test with Escherichia coli; 31.2 µg/mL (≈ 89.2 µM) against Aspergillus niger; 8 µg/mL (≈ 22.8 µM) in [1]; 62.5 µg/mL (≈ 178 µM) against Staphylococcus aureus; above 500 µg/mL in the test on Klebsiella pneumoniae; 31.2 µg/mL (≈ 89.2 µM) in the test with Saccharomyces cerevisiae. Further, the MIC against Pseudomonas aeruginosa worked out at 16 µg/mL (≈ 45.7 µM); in the test with Candida tropicalis, 31.2 µg/mL (≈ 89.2 µM); against Enterococcus faecalis it was 31.2 µg/mL (≈ 89.2 µM); against Bacillus subtilis, 16 µg/mL (≈ 45.7 µM). Further, the IC50 came out at 190 µM in the test with Vero and 198 µM in the test with A549.

For `O=C(NNC(=O)c1ccc(-n2cccc2)cc1)c1ccc(Cl)cc1`, the minimal inhibitory concentration (MIC) against Escherichia coli was 16 µg/mL (≈ 47.1 µM); with Aspergillus niger, 31.2 µg/mL (≈ 92 µM); in [1] it was 8 µg/mL (≈ 23.5 µM); with Staphylococcus aureus it was 62.5 µg/mL (≈ 184 µM); against Klebsiella pneumoniae it was above 500 µg/mL; in the test on Saccharomyces cerevisiae it was 31.2 µg/mL (≈ 92 µM). Moreover, the MIC in the test with Pseudomonas aeruginosa is 16 µg/mL (≈ 47.1 µM); against Candida tropicalis, 8 µg/mL (≈ 23.5 µM); in the test with Enterococcus faecalis, 31.2 µg/mL (≈ 92 µM); against Bacillus subtilis, 16 µg/mL (≈ 47.1 µM). Besides, the IC50 in the test with Vero stood at 179 µM; in the test on A549 it was 185 µM.
